In ChEMBL document CHEMBL4387741, “Optimization of novel reversible Bruton's tyrosine kinase inhibitors identified using Tethering-fragment-based screens” (Bioorg Med Chem, 2019):

How the values were obtained:
[1] = molecular target: Insulin-like growth factor 1 receptor (Homo sapiens) (UniProt P08069); assay: Inhibition of wild-type human partial length IGF1R (L972 to D1294 residues) expressed in bacterial expression system at 1 uM by Kinomescan method relative to control
[2] = Oral bioavailability in Sprague-Dawley rat using amorphous solid form of compound; assay type: ADME, organism-based; details: in vivo
[3] = molecular target: Dual serine/threonine and tyrosine protein kinase (Homo sapiens) (UniProt Q6XUX3); assay: Inhibition of wild-type human full length RIPK5 (M1 to T929 residues) expressed in mammalian expression system at 1 uM by Kinomescan method relative to control
[4] = molecular target: Eukaryotic translation initiation factor 2-alpha kinase 1 (Homo sapiens) (UniProt Q9BQI3); assay: Inhibition of wild-type human partial length EIF2AK1 (Q147 to E603 residues) expressed in mammalian expression system at 1 uM by Kinomescan method relative to control
Eukaryotic translation initiation factor 2-alpha kinase 1 (Homo sapiens), sequence (Q9BQI3 whole entry, the tested form may be a part): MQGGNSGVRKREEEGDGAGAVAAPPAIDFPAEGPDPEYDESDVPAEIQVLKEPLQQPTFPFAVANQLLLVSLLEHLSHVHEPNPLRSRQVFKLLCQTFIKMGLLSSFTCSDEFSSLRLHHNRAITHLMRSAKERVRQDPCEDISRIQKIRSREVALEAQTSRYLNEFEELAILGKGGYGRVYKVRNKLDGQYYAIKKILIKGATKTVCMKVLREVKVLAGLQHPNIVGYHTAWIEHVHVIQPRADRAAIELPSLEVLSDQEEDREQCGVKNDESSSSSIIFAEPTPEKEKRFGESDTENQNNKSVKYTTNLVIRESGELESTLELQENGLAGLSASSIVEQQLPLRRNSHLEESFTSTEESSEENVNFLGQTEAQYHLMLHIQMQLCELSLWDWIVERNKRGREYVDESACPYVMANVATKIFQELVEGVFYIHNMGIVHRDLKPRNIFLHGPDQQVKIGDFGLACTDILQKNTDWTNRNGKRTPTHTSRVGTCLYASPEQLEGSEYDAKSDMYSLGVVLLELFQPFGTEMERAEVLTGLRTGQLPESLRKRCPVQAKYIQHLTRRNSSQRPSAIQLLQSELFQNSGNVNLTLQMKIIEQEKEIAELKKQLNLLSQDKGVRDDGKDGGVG

[5] = molecular target: Myosin light chain kinase 2, skeletal/cardiac muscle (Homo sapiens) (UniProt Q9H1R3); assay: Inhibition of wild-type human partial length MYLK2 (D258 to K570 residues) expressed in bacterial expression system at 1 uM by Kinomescan method relative to control
[6] = molecular target: SRSF protein kinase 1 (Homo sapiens) (UniProt Q96SB4); assay: Inhibition of wild-type human full length SRPK1 (M1 to S655 residues) expressed in bacterial expression system at 1 uM by Kinomescan method relative to control
[7] = molecular target: Ephrin type-A receptor 3 (Homo sapiens) (UniProt P29320); assay: Inhibition of wild-type human partial length EPHA3 (D604 to K889 residues) expressed in bacterial expression system at 1 uM by Kinomescan method relative to control
[8] = molecular target: Serine/threonine-protein kinase STK11 (Homo sapiens) (UniProt Q15831); assay: Inhibition of wild-type human full length LKB1 (M1 to Q433 residues) expressed in bacterial expression system at 1 uM by Kinomescan method relative to control
Serine/threonine-protein kinase STK11 (Homo sapiens), sequence (Q15831 whole entry, the tested form may be a part): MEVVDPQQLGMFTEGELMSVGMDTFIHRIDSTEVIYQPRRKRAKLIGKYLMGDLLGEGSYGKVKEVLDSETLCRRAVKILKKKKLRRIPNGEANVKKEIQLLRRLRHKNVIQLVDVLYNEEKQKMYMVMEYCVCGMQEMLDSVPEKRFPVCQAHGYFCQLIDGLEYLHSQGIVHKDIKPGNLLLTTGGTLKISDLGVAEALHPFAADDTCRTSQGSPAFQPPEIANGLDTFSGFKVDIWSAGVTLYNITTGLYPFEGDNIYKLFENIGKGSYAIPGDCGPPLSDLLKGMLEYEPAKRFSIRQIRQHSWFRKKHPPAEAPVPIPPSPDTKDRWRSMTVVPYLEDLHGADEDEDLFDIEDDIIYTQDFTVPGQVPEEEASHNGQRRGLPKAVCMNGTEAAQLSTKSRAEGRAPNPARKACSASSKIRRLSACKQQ

[9] = molecular target: Aurora kinase C (Homo sapiens) (UniProt Q9UQB9); assay: Inhibition of wild-type human full length AURKC (M1 to S275 residues) expressed in bacterial expression system at 1 uM by Kinomescan method relative to control
Aurora kinase C (Homo sapiens), sequence (Q9UQB9 whole entry, the tested form may be a part): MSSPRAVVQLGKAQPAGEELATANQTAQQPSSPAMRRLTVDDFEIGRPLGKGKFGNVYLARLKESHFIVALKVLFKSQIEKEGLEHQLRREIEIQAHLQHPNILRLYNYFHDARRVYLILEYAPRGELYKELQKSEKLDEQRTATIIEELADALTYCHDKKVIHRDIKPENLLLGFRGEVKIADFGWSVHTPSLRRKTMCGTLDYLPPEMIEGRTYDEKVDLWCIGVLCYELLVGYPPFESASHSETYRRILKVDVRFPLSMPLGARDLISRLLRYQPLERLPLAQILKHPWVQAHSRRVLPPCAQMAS

[10] = molecular target: Receptor tyrosine-protein kinase erbB-2 (Homo sapiens) (UniProt P04626); assay: Inhibition of wild-type human partial length ERBB2 (K646 to V1225 residues) expressed in mammalian expression system at 10 uM by Kinomescan method relative to control
[11] = molecular target: Phosphatidylinositol 3-kinase catalytic subunit type 3 (Homo sapiens) (UniProt Q8NEB9); assay: Inhibition of wild-type human partial length VPS34 (S282 to H879 residues) expressed in mammalian expression system at 10 uM by Kinomescan method relative to control
[12] = test system: Tyrosine-protein kinase ABL1 (Homo sapiens), P00519 [E255K]; assay: Inhibition of human phosphorylated ABL1 E255K mutant (S229 to K512 residues) expressed in mammalian expression system at 10 uM by Kinomescan method relative to control
[13] = test system: Epidermal growth factor receptor (Homo sapiens), P00533 [UNDEFINED MUTATION]; assay: Inhibition of human partial length EGFR E746-A750del mutant expressed in bacterial expression system at 10 uM by Kinomescan method relative to control
Epidermal growth factor receptor (Homo sapiens), P00533 [UNDEFINED MUTATION], sequence (P00533 whole entry, looked up, stated change not applied, the tested form may be a part): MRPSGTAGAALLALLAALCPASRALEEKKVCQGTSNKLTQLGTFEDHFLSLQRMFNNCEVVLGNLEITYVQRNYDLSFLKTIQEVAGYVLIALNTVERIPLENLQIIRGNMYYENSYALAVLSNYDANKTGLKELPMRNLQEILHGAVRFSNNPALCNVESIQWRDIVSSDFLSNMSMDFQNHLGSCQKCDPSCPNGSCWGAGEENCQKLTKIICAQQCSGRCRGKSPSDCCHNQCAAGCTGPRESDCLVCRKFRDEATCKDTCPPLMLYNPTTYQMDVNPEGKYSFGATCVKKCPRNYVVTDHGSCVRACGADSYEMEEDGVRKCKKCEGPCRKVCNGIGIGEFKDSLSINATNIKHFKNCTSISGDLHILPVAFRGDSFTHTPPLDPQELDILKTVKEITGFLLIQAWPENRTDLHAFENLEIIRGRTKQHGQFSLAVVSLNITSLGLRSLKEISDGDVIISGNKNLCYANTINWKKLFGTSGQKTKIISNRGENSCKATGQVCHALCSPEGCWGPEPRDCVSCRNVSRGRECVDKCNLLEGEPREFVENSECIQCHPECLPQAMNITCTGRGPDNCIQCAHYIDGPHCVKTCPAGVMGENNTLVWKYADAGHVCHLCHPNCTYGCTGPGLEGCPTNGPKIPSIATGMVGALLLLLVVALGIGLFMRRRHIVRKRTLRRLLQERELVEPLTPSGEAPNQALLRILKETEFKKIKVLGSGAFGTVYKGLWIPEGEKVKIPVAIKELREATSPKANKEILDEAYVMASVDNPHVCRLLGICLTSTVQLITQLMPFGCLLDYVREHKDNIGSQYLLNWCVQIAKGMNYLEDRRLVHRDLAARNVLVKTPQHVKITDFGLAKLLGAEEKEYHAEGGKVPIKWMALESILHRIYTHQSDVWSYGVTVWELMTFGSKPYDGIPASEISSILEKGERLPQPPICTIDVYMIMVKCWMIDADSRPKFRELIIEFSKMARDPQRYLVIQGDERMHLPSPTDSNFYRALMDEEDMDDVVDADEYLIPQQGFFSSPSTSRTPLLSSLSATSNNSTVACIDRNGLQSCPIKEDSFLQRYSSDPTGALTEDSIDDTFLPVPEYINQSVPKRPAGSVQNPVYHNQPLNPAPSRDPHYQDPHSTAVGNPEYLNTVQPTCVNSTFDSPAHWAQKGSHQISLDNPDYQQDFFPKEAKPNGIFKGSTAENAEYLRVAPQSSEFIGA

[14] = molecular target: Activin receptor type-1-like (Homo sapiens) (UniProt P37023); assay: Inhibition of wild-type human ACVRL1 (L164 to Q503 residues) expressed in bacterial expression system at 10 uM by Kinomescan method relative to control
Activin receptor type-1-like (Homo sapiens), sequence (P37023 whole entry, the tested form may be a part): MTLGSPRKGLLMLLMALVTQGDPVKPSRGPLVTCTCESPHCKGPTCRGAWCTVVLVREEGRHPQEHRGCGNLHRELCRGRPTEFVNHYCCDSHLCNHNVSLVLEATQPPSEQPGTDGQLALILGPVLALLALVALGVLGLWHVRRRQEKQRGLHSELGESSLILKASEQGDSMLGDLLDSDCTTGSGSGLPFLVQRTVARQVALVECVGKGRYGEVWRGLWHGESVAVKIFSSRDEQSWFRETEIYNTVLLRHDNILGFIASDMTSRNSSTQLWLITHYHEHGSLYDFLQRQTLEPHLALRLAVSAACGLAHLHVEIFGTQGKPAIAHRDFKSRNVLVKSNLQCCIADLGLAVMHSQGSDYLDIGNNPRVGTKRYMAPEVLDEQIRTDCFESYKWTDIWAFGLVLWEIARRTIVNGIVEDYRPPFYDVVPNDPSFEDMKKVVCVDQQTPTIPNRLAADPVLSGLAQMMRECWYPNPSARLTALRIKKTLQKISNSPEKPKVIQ

[15] = molecular target: Ephrin type-A receptor 6 (Homo sapiens) (UniProt Q9UF33); assay: Inhibition of wild-type human partial length EPHA6 (Y700 to E1046 residues) expressed in bacterial expression system at 10 uM by Kinomescan method relative to control
[16] = molecular target: STE20/SPS1-related proline-alanine-rich protein kinase (Homo sapiens) (UniProt Q9UEW8); assay: Inhibition of wild-type human partial length STK39 (P43 to I357 residues) expressed in mammalian expression system at 10 uM by Kinomescan method relative to control
[17] = molecular target: Death-associated protein kinase 3 (Homo sapiens) (UniProt O43293); assay: Inhibition of wild-type human partial length DAPK3 (M1 to A277 residues) expressed in bacterial expression system at 10 uM by Kinomescan method relative to control
[18] = molecular target: Activated CDC42 kinase 1 (Homo sapiens) (UniProt Q07912); assay: Inhibition of wild-type human partial length TNK2 (S159 to D474 residues) expressed in bacterial expression system at 10 uM by Kinomescan method relative to control
[19] = molecular target: cGMP-dependent protein kinase 2 (Homo sapiens) (UniProt Q13237); assay: Inhibition of wild-type human partial length PRKG2 (S422 to F762 residues) expressed in mammalian expression system at 10 uM by Kinomescan method relative to control
cGMP-dependent protein kinase 2 (Homo sapiens), sequence (Q13237 whole entry, the tested form may be a part): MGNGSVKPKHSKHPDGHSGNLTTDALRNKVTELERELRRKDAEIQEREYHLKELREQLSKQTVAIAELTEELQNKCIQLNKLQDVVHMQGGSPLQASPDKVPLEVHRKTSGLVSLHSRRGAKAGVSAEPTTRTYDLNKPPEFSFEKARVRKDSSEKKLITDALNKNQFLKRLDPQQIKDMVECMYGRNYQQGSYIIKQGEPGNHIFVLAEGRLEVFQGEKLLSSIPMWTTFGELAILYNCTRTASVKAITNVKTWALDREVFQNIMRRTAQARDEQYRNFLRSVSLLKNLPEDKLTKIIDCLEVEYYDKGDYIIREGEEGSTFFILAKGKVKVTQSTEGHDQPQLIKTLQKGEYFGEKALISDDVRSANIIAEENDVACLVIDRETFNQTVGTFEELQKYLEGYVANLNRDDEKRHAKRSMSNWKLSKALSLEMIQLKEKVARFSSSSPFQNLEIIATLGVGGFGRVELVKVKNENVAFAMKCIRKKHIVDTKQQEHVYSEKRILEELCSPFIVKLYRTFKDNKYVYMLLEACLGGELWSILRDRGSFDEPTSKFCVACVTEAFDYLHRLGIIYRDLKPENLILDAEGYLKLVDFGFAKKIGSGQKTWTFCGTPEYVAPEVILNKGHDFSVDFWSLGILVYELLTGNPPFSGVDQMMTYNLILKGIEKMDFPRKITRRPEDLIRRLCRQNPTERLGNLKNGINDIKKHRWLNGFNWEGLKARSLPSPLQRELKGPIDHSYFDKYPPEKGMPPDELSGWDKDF

[20] = molecular target: Serine/threonine-protein kinase PLK4 (Homo sapiens) (UniProt O00444); assay: Inhibition of wild-type human partial length PLK4 (M1 to S273 residues) expressed in mammalian expression system at 10 uM by Kinomescan method relative to control
Serine/threonine-protein kinase PLK4 (Homo sapiens), sequence (O00444 whole entry, the tested form may be a part): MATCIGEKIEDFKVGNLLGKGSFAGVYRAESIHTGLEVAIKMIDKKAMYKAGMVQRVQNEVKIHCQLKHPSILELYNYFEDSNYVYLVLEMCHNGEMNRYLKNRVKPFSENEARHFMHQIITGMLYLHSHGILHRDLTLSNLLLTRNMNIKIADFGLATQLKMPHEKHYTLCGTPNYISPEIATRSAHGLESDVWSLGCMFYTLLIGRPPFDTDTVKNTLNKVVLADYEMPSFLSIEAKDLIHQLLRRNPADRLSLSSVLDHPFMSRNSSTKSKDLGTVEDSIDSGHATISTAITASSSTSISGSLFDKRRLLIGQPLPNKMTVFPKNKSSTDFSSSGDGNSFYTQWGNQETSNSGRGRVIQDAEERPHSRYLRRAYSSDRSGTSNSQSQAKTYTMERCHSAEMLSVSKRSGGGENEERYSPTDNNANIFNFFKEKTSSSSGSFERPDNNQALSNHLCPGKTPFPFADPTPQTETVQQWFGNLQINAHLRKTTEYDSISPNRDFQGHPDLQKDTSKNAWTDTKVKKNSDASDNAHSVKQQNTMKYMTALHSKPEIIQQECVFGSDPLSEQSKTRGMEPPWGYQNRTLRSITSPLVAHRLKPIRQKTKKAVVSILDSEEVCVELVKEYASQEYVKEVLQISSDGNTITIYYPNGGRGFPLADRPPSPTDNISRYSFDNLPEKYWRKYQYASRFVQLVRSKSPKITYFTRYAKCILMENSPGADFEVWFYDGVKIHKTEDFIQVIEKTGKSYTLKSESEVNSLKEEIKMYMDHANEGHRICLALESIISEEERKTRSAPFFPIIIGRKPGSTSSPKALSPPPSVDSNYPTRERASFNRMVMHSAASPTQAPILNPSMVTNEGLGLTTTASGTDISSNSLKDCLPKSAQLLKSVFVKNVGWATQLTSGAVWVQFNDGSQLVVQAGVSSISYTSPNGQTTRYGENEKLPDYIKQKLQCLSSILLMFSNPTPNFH

[21] = molecular target: Serine/threonine-protein kinase PAK 4 (Homo sapiens) (UniProt O96013); assay: Inhibition of wild-type human partial length PAK4 (Q144 to R438 residues) expressed in bacterial expression system at 10 uM by Kinomescan method relative to control
[22] = molecular target: Calcium/calmodulin-dependent protein kinase type 1B (Homo sapiens) (UniProt Q6P2M8); assay: Inhibition of wild-type human partial length CAMK1B (W9 to A311 residues) expressed in mammalian expression system at 10 uM by Kinomescan method relative to control
[23] = molecular target: Mitogen-activated protein kinase kinase kinase 13 (Homo sapiens) (UniProt O43283); assay: Inhibition of wild-type human full length LZK (M1 to W966 residues) expressed in mammalian expression system at 10 uM by Kinomescan method relative to control
[24] = molecular target: Ribosomal protein S6 kinase alpha-6 (Homo sapiens) (UniProt Q9UK32); assay: Inhibition of wild-type human partial length N-terminal RSK4 kinase domain 1 (M1 to E397 residues) expressed in mammalian expression system at 10 uM by Kinomescan method relative to control
[25] = test system: Tyrosine-protein kinase ABL1 (Homo sapiens), P00519 [Y253F]; assay: Inhibition of human phosphorylated ABL1 Y253F mutant (S229 to K512 residues) expressed in mammalian expression system at 10 uM by Kinomescan method relative to control
[26] = molecular target: Serine/threonine-protein kinase Sgk2 (Homo sapiens) (UniProt Q9HBY8); assay: Inhibition of wild-type human partial length SGK2 (L54 to C427 residues) expressed in mammalian expression system at 10 uM by Kinomescan method relative to control
[27] = molecular target: RAC-alpha serine/threonine-protein kinase (Homo sapiens) (UniProt P31749); assay: Inhibition of wild-type human partial length AKT1 expressed in bacterial expression system at 10 uM by Kinomescan method relative to control

O=C(Nc1cccc([C@@H]2CN(c3ncnc4[nH]ccc34)CCN2CCO)c1)Nc1c(F)cccc1N1CCCC1
inhibition [1]: 100% | bioavailability [2]: 12% | inhibition [3]: 74% | inhibition [4]: 100% | inhibition [5]: 100% | inhibition [6]: 37% | inhibition [7]: 100% | inhibition [8]: 87% | inhibition [9]: 33%

O=C(Nc1cccc([C@H]2CCCN(c3ncnc4[nH]ccc34)C2)c1)Nc1ccccc1N1CCCC1
inhibition [10]: 55% | inhibition [11]: 52% | inhibition [12]: 35% | inhibition [13]: 75% | inhibition [14]: 100% | inhibition [15]: 51% | inhibition [16]: 75% | inhibition [17]: 4.1% | inhibition [18]: 100% | inhibition [19]: 54% | inhibition [20]: 4.9% | inhibition [21]: 54% | inhibition [22]: 46% | inhibition [23]: 100% | inhibition [24]: 34% | inhibition [25]: 74% | inhibition [26]: 34% | inhibition [27]: 100%
